# What was measured:
# [1] = set-up: method as in earlier work; details: ref 24 (Tanaka et al., ACS Med. Chem. Lett. 2025); cited from earlier work
# [2] = set-up: method as in earlier work; details: ref 24 (Tanaka et al., ACS Med. Chem. Lett. 2025); cited from earlier work; remark: listed apart in the source
# [3] = test system: MK-801 challenged mouse; set-up: method as in earlier work; details: IP, ref 24 (Tanaka et al., ACS Med. Chem. Lett. 2025); cited from earlier work
# [4] = set-up: method as in earlier work; details: ref 24 (Tanaka et al., ACS Med. Chem. Lett. 2025); cited from earlier work; remark: listed apart in the source
# [5] = set-up: method as in earlier work; details: ref 24 (Tanaka et al., ACS Med. Chem. Lett. 2025); cited from earlier work; remark: listed apart in the source
# [6] = Plasma protein binding, human (equilibrium dialysis); format: in vitro ADME; details: pH 7.4, read-out: PPB human (converted)
# Method: (§1) Plasma protein binding and Brain homogenate binding: Determination of fraction unbound (f u) in plasma was conducted in vitro via equilibrium dialysis using HTDialysis (HTD) membrane plates. The top half of the plate was filled with 100 uL of Dubelco’s Phosphate Buffered Saline, pH 7.4 (DPBS). Compounds were diluted into plasma from each species (5 µM final concentration), which was aliquoted in triplicate to the ‘bottom half’ of the prepared HTD plate wells. The HTD plate was sealed and incubated for 6 hours at 37 °C. Following incubation, each well (both top and bottom halves) were transferred (20 µL) to the corresponding wells of a 96-shallow-well (V-bottom) plate. The daughter plates were then matrix-matched (DPBS side wells received equal volume of plasma, and plasma side wells received equal volume of DPBS), and extraction solution (120 µL; acetonitrile containing 50 nM carbamazepine as IS) was added to all wells of both daughter plates to precipitate protein and extract test article. The plates were then sealed and centrifuged (3500 rcf) for 10 minutes at ambient temperature. Supernatant (60 µL) from each well of the daughter plates was then transferred to the corresponding wells of new daughter plates (96-shallow-well, V bottom) containing water (Milli-Q, 60 µL/well), and the plates were sealed in preparation for LC-MS/MS analysis (see LC-MS/MS analysis method below).
# (§2) The unbound fraction (f u) was calculated following the equation below, and mean values for each species were calculated from 3 replicates. […]
# (§3) Fraction unbound for both plasma and brain samples was determined using Equation 4.
# (§4) Equation 4 Determination of fraction unbound in plasma. […]
# [7] = molecular target: T1, human TREK-1 (hTREK-1) (Homo sapiens, UniProt O95069); assay: TREK-1 thallium flux assay (CHO-K1 cells stably expressing hTREK-1); format: cell-based; details: human TREK-1, thallium flux; read-out: h TREK-1 Tl+ IC50
# T1 construct: expressed in transfected cells
# T1 sequence (O95069 1-426): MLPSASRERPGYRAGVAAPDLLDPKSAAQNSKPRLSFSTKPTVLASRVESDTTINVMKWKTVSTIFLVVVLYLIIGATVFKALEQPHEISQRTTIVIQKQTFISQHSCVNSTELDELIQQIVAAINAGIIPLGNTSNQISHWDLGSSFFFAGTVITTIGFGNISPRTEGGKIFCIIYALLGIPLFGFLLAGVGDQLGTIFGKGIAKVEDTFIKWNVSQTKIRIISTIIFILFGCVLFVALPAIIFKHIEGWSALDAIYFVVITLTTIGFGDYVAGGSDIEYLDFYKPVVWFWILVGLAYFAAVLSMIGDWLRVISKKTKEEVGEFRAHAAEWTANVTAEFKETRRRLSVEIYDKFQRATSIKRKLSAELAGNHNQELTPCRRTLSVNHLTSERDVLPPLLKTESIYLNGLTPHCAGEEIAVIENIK
# Method: Procedures for Biological Experiments
# TREK-1 Thallium flux assay
# CHO-K1 cells stably expressing hTREK-1 were cultured in T225 flask. The cells were loaded with FluxOR dye and plated in 384 well plate at the experiment day. Test compounds or control compound (tert-butyl (3-((4-(benzyloxy)-2-methylphenyl)carbamoyl)-4-chlorophenyl)carbamate) or 0.3% DMSO (vehicle control) were added directly to the cell plates and incubated for 10 min, and then treated with thallium stimulus buffer to initiate thallium flux.
# To measure the efficacy and potency of test compounds, the change in fluorescence intensity (ΔRatio) and % inhibition were calculated using the following equations:
# ΔRatio = (fluorescence intensity at 25 seconds after thallium addition)/(average of fluorescent intensity before thallium addition)
# 0.3% DMSO - ΔRatio of 10 μM control compound)}x100
# % inhibition vs compound concentration were plotted in XLfit and calculated IC50.
# CHO-K1 cells stably expressing human TREK-1 (hTREK-1) were cultured in T225 flask.
# The cells were loaded with FluxOR dye and plated in 384 well plate at the experiment day. Test compounds or control compound (tert-butyl (3-((4-(benzyloxy)-2-methylphenyl)carbamoyl)-4-chlorophenyl)carbamate) or 0.3% DMSO (vehicle control) which were prepared on separate plates were added to the cell plates and incubated for 10 min, and then the cells with test compounds or […]
# chlorophenyl)carbamate) or 0.3% DMSO (vehicle control) were treated with thallium stimulus buffer to initiate thallium flux. To measure the efficacy and potency of test compounds, the change in fluorescence intensity (ΔRatio) and % inhibition were calculated using the following equations: […]
# [8] = Rat brain to plasma ratio (Kp, Kp,uu); format: in vivo; details: male, Sprague Dawley, brain and plasma, intravenous, 0.2 mg/kg; rat brain:plasma
# Method: Determination of brain to plasma ratio:
# All animal study procedures were approved by the Institutional Animal Care and Use Committee and were conducted in accordance with the National Institutes of Health regulations of animal care covered in Principles of Laboratory Animal Care (National Institutes of Health). All rats were fasted overnight prior to testing.
# For determination of the brain over plasma ratio (Kp), compounds were formulated in 8% ethanol, 32% PEG400 and 60% DMSO (v/v/v) and administered as a single 0.2 mg/kg IV dose (1 mL/kg) to male, Sprague Dawley rats (n = 1) via injection into a surgically-implanted jugular vein catheter. At 15 min post dosing, blood sample was collected into chilled, K2EDTA anticoagulant-fortified tube and immediately placed on wet ice. The blood sample was then centrifuged (1700 rcf, 5 minutes, 4 °C) to obtain plasma sample. At the same post-administration time point, whole brain sample was obtained by rapid dissection, rinsed with PBS, and immediately frozen in individual tissue collection box (dry ice). All brain and plasma samples were stored at -80 °C until […]
# Sample Analysis: Concentrations in plasma and brain homogenates were quantified by liquid chromatography tandem mass spectrometry (LC-MS/MS). Whole brains were homogenized in 3 mL of 70:30 IPA:water in a mini bead beater for 3 min, and centrifuged at 3,500 g for 5 min. 5 uL of the supernatant was diluted in 15 uL of blank plasma for quantification of the analytes. Plasma samples were centrifuged at 3,500 g for 5 min. A standard curve was generated by diluting the analytes DMSO stocks with blank plasma to obtain a final concentration of 10,000 ng/ml followed by a serial dilution down to 0.5 ng/ml. Quality controls were generated by a serial dilution of the 5,000 ng/ml standard curve solution in blank plasma to obtain 3 concentrations of 500, 50, and 5 ng/ml. 20 uL of brain diluted in plasma, plasma, blank plasma, standard curve and QC samples were loaded in a V-bottom 96-well plate. 120 uL of acetonitrile containing 0.05 uM carbamazepine (internal standard) was added to each well and the plate was centrifuged at 3,500 g for 5 min. 60 uL of the supernatant of each well (protein free) was transferred to a new 96-well plate containing 60 uL of water. The plates were sealed for analysis by LC-MS/MS.
# Plasma and brain tissue samples originating from in vivo studies were analyzed by electrospray ionization using an AB Sciex Q-TRAP 5500 (Foster City, CA) that was coupled to a Shimadzu LC-20AD pump (Columbia, MD) and a Leap Technologies CTC PAL auto-sampler (Carrboro, NC). Analytes were separated by gradient elution using a C18 column (3 x 50 mm, 3 mm; Fortis Technologies Ltd, Cheshire, UK) that was thermostated at 40 °C. HPLC mobile phase A was 0.1% formic acid in water (pH unadjusted); mobile phase B was 0.1% formic acid in acetonitrile (pH […]
# min, with an isocratic hold for 0.5 min, before transitioning to 10% B over 0.05 min. The column was re-equilibrated (1 min) before the next sample injection. The total run time was 2.55 min, and the HPLC flow rate was 0.5 ml/min. The source temperature was set at 500 °C, and mass spectral analyses were performed using a Turbo-Ion spray source in positive ionization mode (5.0-kV spray voltage) and using multiple-reaction monitoring of transitions specific for the analytes. All data were analyzed using AB Sciex Analyst 1.5.1 software.
# Brain plasma concentration ratio (Kp) was calculated by dividing brain concentration by plasma concentration for each animal. Unbound brain to unbound plasma concentration ratio (Kp,uu) is calculated using the following formula: Kp,uu = (Brain ng/g x brain fu)/(plasma ng/ml x plasma fu).
# In-vitro determination of blood-brain barrier penetration potential
# Blood-brain barrier penetration was determined using MDR1-MDCK cell monolayers by Absorption Systems, following their protocol. In short, compounds were incubated at […] final concentration on one side of the cell monolayer for 2 hours. […]
# [9] = Plasma protein binding, rat; format: in vitro ADME; details: rat, plasma, pH 7.4, rat plasma, bound; read-out: PPB rat (converted)
# Method: as §1, §2, §3, §4
# [10] = Rat in vivo PK (plasma clearance) in SAR tables; details: read-out: Rat CLp
# [11] = Plasma protein binding, mouse; format: in vitro ADME; details: mouse, plasma, pH 7.4, mouse plasma, bound; read-out: PPB mouse (converted)
# Method: as §1, §2, §3, §4
# [12] = Liver microsome intrinsic clearance, rat; format: in vitro ADME; details: pH 7.4; rat liver microsomes, predicted intrinsic clearance; read-out: LMS CLINT rat
# Method: (§5) were incubated in 100 mM potassium phosphate pH 7.4 buffer with 3 mM MgCl2 at 37 °C with constant shaking. After a 5 min preincubation, the reaction was initiated by the addition of NADPH (1 mM). At selected time intervals (0, 3, 7, 15, 25, and 45 min), aliquots were taken and subsequently placed into a 96-well plate containing cold acetonitrile with internal standard (50 ng/mL carbamazepine). Plates were then centrifuged at 3000 rcf (4 °C) for 10 min, and the supernatant was transferred to a separate 96-well plate and diluted 1:1 with water for LC/MS/MS analysis. The in vitro half-life ( 1/2, min, Eq. 1), intrinsic clearance (CLint, mL/min/kg, Eq. 2), and subsequent predicted hepatic clearance (CLhep, mL/min/kg, Eq. 3) was determined employing the […]
# (§6) where k represents the slope from linear regression analysis of the natural log percent remaining of a test compound as a function of incubation time […]
# (§7) (2) CLint = in vitroT x mg microsomes x gram liver x kg body wt ascale-up factors: of 20 (human) or 45 (rat) […]
# (§8) where Qh (hepatic blood flow, mL/min/kg) is 21 (human) or 70 (rat).
# (§9) LC/MS/MS Bioanalysis of Samples from Plasma Protein Binding and Intrinsic Clearance […]
# (§10) Samples were analyzed on a Thermo Electron TSQ Quantum Ultra triple quad mass spectrometer (San Jose, CA) via electrospray ionization (ESI) with two Themo Electron Accella pumps (San Jose, CA), and a Leap Technologies CTC PAL autosampler (Carrboro, NC). Analytes were […]
# [13] = Liver microsome intrinsic clearance, mouse; format: in vitro ADME; details: mouse liver microsomes, predicted intrinsic clearance; read-out: LMS CLINT mouse
# [14] = Liver microsome intrinsic clearance, human; format: in vitro ADME; details: pH 7.4; human liver microsomes, predicted intrinsic clearance; read-out: LMS CLINT human
# Method: as §5, §6, §7, §8, §9, §10
"fraction unbound at 6 h, 5 µM [6]",IC50 [7] [µM],Kp at 15 min [8],"fraction unbound at 6 h, 5 µM [9]",clearance [10] [mL/min/kg],"fraction unbound at 6 h, 5 µM [11]",CLint scaled at 1 µM [12] [mL/min/kg],CLint scaled [13] [mL/min/kg],CLint scaled at 1 µM [14] [mL/min/kg],Compound,aqueous solubility [1] [µM],brain homogenate binding rat [2] [%],"MED, MK-801 mouse NOR [3] [mg/kg]",ChromatoLogD [4],brain homogenate binding mouse [5] [%]
–,–,–,–,–,–,–,–,–,Cc1cc(C#Cc2ccc(F)cc2)cnc1NC(=O)c1cc(NC(=O)OC(C)(C)C)ccc1Cl [Compound 5],< 5,> 99.9,10,5.16,99.4
0.012,0.13,0.97,0.016,27.8,0.008,–,–,–,"CC(=O)N[C@H]1CC[C@@H](n2ncc(Cl)c2C(=O)Nc2ncc(C#Cc3ccccc3)cc2C)CC1 [Compound 15f, 1-(cis-4-Acetamidocyclohexyl)-4-chloro-N-(3-methyl-5-(phenylethynyl)pyridin-2-yl)-1H-pyrazole-5-carboxamide]",–,–,–,–,–
0.039,–,–,–,–,0.022,72,340,16,"CC(=O)N1CC(F)(Cn2ncc(Cl)c2C(=O)Nc2ncc(C#Cc3ccccc3)cc2C)C1 [Compound 15e, 1-((1-Acetyl-3-fluoroazetidin-3-yl)methyl)-4-chloro-N-(3-methyl-5-(phenylethynyl)pyridin-2-yl)-1H-pyrazole-5-carboxamide]",–,–,–,–,–
